Assay results taken from PubChem BioAssay (NCI).
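A five-concentration, 48-hour dose response in 96-well plates underlies each endpoint, interpolated linearly between surrounding concentrations. GI50 is the concentration that inhibits growth by half. TGI is the concentration that stops growth completely.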

Key:
Assay in all cases: growth of human tumour cells (NCI), 48 h
NCI-H460 lung = tested on: NCI-H460 lung
BT-549 breast = tested on: BT-549 breast
T-47D breast = tested on: T-47D breast
CAKI-1 renal = tested on: CAKI-1 renal
SF-295 CNS = tested on: SF-295 CNS
MDA-MB-468 breast = tested on: MDA-MB-468 breast
RPMI-8226 leukemia = tested on: RPMI-8226 leukemia
SK-MEL-28 melanoma = tested on: SK-MEL-28 melanoma
CCRF-CEM leukemia = tested on: CCRF-CEM leukemia
KM12 colon = tested on: KM12 colon
HCT-116 colon = tested on: HCT-116 colon
NCI-H23 lung = tested on: NCI-H23 lung
DU-145 prostate = tested on: DU-145 prostate
SF-268 CNS = tested on: SF-268 CNS
SNB-75 CNS = tested on: SNB-75 CNS
UACC-257 melanoma = tested on: UACC-257 melanoma
HOP-62 NSCLC = tested on: HOP-62 NSCLC
HT29 colon = tested on: HT29 colon
SNB-19 CNS = tested on: SNB-19 CNS
TK-10 renal = tested on: TK-10 renal
COLO 205 colon = tested on: COLO 205 colon
SN12C renal = tested on: SN12C renal
SW-620 colon = tested on: SW-620 colon
RXF 393 renal = tested on: RXF 393 renal
OVCAR-8 ovarian = tested on: OVCAR-8 ovarian
ACHN renal = tested on: ACHN renal
MDA-MB-435 = tested on: MDA-MB-435
786-0 renal = tested on: 786-0 renal
SK-MEL-2 melanoma = tested on: SK-MEL-2 melanoma
MALME-3M melanoma = tested on: MALME-3M melanoma
LOX IMVI melanoma = tested on: LOX IMVI melanoma
A498 renal = tested on: A498 renal
UO-31 renal = tested on: UO-31 renal
SR leukemia = tested on: SR leukemia
HL-60(TB) leukemia = tested on: HL-60(TB) leukemia
U251 CNS = tested on: U251 CNS
HOP-92 NSCLC = tested on: HOP-92 NSCLC
HCT-15 colon = tested on: HCT-15 colon
PC-3 prostate = tested on: PC-3 prostate
MDA-MB-231 breast = tested on: MDA-MB-231 breast
OVCAR-5 ovarian = tested on: OVCAR-5 ovarian
UACC-62 melanoma = tested on: UACC-62 melanoma
K-562 leukemia = tested on: K-562 leukemia
NCI-H226 lung = tested on: NCI-H226 lung
MOLT-4 leukemia = tested on: MOLT-4 leukemia
OVCAR-4 ovarian = tested on: OVCAR-4 ovarian
IGROV1 ovarian = tested on: IGROV1 ovarian
M14 melanoma = tested on: M14 melanoma
SF-539 CNS = tested on: SF-539 CNS
OVCAR-3 ovarian = tested on: OVCAR-3 ovarian
NCI/ADR-RES ovarian = tested on: NCI/ADR-RES ovarian
MCF7 breast = tested on: MCF7 breast
SK-MEL-5 melanoma = tested on: SK-MEL-5 melanoma
SK-OV-3 ovarian = tested on: SK-OV-3 ovarian
HCC-2998 colon = tested on: HCC-2998 colon
NCI-H522 lung = tested on: NCI-H522 lung
EKVX NSCLC = tested on: EKVX NSCLC
A549 NSCLC = tested on: A549 NSCLC
HS 578T breast = tested on: HS 578T breast

COc1c2c(cc3c1C(CCc1ccccc1)N(C)CC3)OCO2 (stereo not drawn)
GI50 (NCI-H460 lung): 7.61 µM | TGI (NCI-H460 lung): 54.3 µM | GI50 (BT-549 breast): 14.3 µM | TGI (BT-549 breast): 35.5 µM | GI50 (T-47D breast): 11.3 µM | TGI (T-47D breast): 49.2 µM | GI50 (CAKI-1 renal): 10.5 µM | TGI (CAKI-1 renal): > 100 µM | GI50 (SF-295 CNS): 4.34 µM | TGI (SF-295 CNS): 28.9 µM | GI50 (MDA-MB-468 breast): 11.7 µM | TGI (MDA-MB-468 breast): 27.4 µM | GI50 (RPMI-8226 leukemia): 6.07 µM | TGI (RPMI-8226 leukemia): 38.2 µM | GI50 (SK-MEL-28 melanoma): 15.8 µM | TGI (SK-MEL-28 melanoma): 59.3 µM | GI50 (CCRF-CEM leukemia): 19.2 µM | TGI (CCRF-CEM leukemia): > 100 µM | GI50 (KM12 colon): 21.4 µM | TGI (KM12 colon): 70 µM | GI50 (HCT-116 colon): 4.32 µM | TGI (HCT-116 colon): > 100 µM | GI50 (NCI-H23 lung): 16.2 µM | TGI (NCI-H23 lung): > 100 µM | GI50 (DU-145 prostate): 36 µM | TGI (DU-145 prostate): > 100 µM | GI50 (SF-268 CNS): 17.3 µM | TGI (SF-268 CNS): > 100 µM | GI50 (SNB-75 CNS): 11.6 µM | TGI (SNB-75 CNS): 54 µM | GI50 (UACC-257 melanoma): 29.3 µM | TGI (UACC-257 melanoma): > 100 µM | GI50 (HOP-62 NSCLC): 8.32 µM | TGI (HOP-62 NSCLC): > 100 µM | GI50 (HT29 colon): 5.9 µM | TGI (HT29 colon): 65.3 µM | GI50 (SNB-19 CNS): 21.7 µM | TGI (SNB-19 CNS): > 100 µM | GI50 (TK-10 renal): 47.2 µM | TGI (TK-10 renal): > 100 µM | GI50 (COLO 205 colon): 10.4 µM | TGI (COLO 205 colon): 36.5 µM | GI50 (SN12C renal): 10.2 µM | TGI (SN12C renal): > 100 µM | GI50 (SW-620 colon): 10.3 µM | TGI (SW-620 colon): 59.6 µM | GI50 (RXF 393 renal): 11.8 µM | TGI (RXF 393 renal): 55 µM | GI50 (OVCAR-8 ovarian): 31.3 µM | TGI (OVCAR-8 ovarian): > 100 µM | GI50 (ACHN renal): 13.5 µM | TGI (ACHN renal): > 100 µM | GI50 (MDA-MB-435): 6.25 µM | TGI (MDA-MB-435): 36.5 µM | GI50 (786-0 renal): 18.7 µM | TGI (786-0 renal): > 100 µM | GI50 (SK-MEL-2 melanoma): 24.6 µM | TGI (SK-MEL-2 melanoma): 98.3 µM | GI50 (MALME-3M melanoma): 13 µM | TGI (MALME-3M melanoma): 27.3 µM | GI50 (LOX IMVI melanoma): 5.31 µM | TGI (LOX IMVI melanoma): 19.4 µM | GI50 (A498 renal): 12.1 µM | TGI (A498 renal): 48.3 µM | GI50 (UO-31 renal): 8.35 µM | TGI (UO-31 renal): > 100 µM | GI50 (SR leukemia): 10.6 µM | TGI (SR leukemia): 53.3 µM | GI50 (HL-60(TB) leukemia): 4.8 µM | TGI (HL-60(TB) leukemia): 26.4 µM | GI50 (U251 CNS): 24.5 µM | TGI (U251 CNS): > 100 µM | GI50 (HOP-92 NSCLC): 5.53 µM | TGI (HOP-92 NSCLC): 56.1 µM | GI50 (HCT-15 colon): 22.5 µM | TGI (HCT-15 colon): > 100 µM | GI50 (PC-3 prostate): 11.3 µM | TGI (PC-3 prostate): > 100 µM | GI50 (MDA-MB-231 breast): 10 µM | TGI (MDA-MB-231 breast): 40.7 µM | GI50 (OVCAR-5 ovarian): 9.57 µM | TGI (OVCAR-5 ovarian): > 100 µM | GI50 (UACC-62 melanoma): 12 µM | TGI (UACC-62 melanoma): 43.9 µM | GI50 (K-562 leukemia): 17.8 µM | TGI (K-562 leukemia): > 100 µM | GI50 (NCI-H226 lung): 13.8 µM | TGI (NCI-H226 lung): > 100 µM | GI50 (MOLT-4 leukemia): 15.8 µM | TGI (MOLT-4 leukemia): 65.1 µM | GI50 (OVCAR-4 ovarian): 26.4 µM | TGI (OVCAR-4 ovarian): > 100 µM | GI50 (IGROV1 ovarian): 10 µM | TGI (IGROV1 ovarian): 62.6 µM | GI50 (M14 melanoma): 7.57 µM | TGI (M14 melanoma): 36.5 µM | GI50 (SF-539 CNS): 10.7 µM | TGI (SF-539 CNS): 35.5 µM | GI50 (OVCAR-3 ovarian): 13.8 µM | TGI (OVCAR-3 ovarian): 77.3 µM | GI50 (NCI/ADR-RES ovarian): 15.6 µM | TGI (NCI/ADR-RES ovarian): 81.1 µM | GI50 (MCF7 breast): 14.6 µM | TGI (MCF7 breast): 43.1 µM | GI50 (SK-MEL-5 melanoma): 13.8 µM | TGI (SK-MEL-5 melanoma): 26.8 µM | GI50 (SK-OV-3 ovarian): 27.4 µM | TGI (SK-OV-3 ovarian): > 100 µM | GI50 (HCC-2998 colon): 18.1 µM | TGI (HCC-2998 colon): 61.1 µM | GI50 (NCI-H522 lung): 18.4 µM | TGI (NCI-H522 lung): 65.4 µM | GI50 (EKVX NSCLC): 30.5 µM | TGI (EKVX NSCLC): > 100 µM | GI50 (A549 NSCLC): 31.5 µM | TGI (A549 NSCLC): > 100 µM | GI50 (HS 578T breast): 14.2 µM | TGI (HS 578T breast): 67 µM
